From patent US6294555A, “1-[(1-Substituted-4-piperidinyl)methyl]-4-piperidine derivative, process for producing the same, medicinal compositions containing the same and intermediates of these compounds” (Dainippon Pharmaceutical Co., Ltd., priority 1998, dated 2001)

Assays:
dopamine D2 receptors = conditions: background art; cited from earlier work
5-HT4 receptors = conditions: background art, J. Pharmacol. Exp. Ther., 1990, 252, 1378; 1991, 257, 781; cited from earlier work
[1] = background art; cited from earlier work
[2] = biological target: T1, Serotonin 4 (5-HT4) Receptors (Cavia porcellus, UniProt O70528); experiment: Binding Assay on Serotonin 4 (5-HT4) Receptors ([3H]-GR113808, striatum membrane fractions); parameters: species or system guinea pig (Std-Hartley); conditions: 50% inhibition of specific binding of 0.1 nM [3H]-GR113808; 37° C., 30 min; test compounds are fumarates except numbers marked ** (62, 72, 74: free bases)
T1 construct: the striatum was dissected; from tissue; host or cells: guinea pig (Std-Hartley) brain striatum, membrane fractions
Description: Std-Hartley guinea pigs weighing 300-400 g were decapitated, and the brain thereof was immediately taken out, and the striatum was dissected. To the tissue thus obtained was added 15-times volume of Hepes buffer (50 mM, pH7.4, 4° C.), homogenized in a Teflon homogenizer, and centrifuged at 48,000×g at 4° C. for 15 minutes. The pellet was suspended in the same Hepes buffer in a volume of 1 ml per 30 mg of the wet tissues to give receptor membrane fractions.
The reaction was terminated by rapid vacuum filtration and washing (3×4 ml) with ice-cold 50 mM Tris-HCl buffer (pH 7.7) through Whatman GF/B filter paper using a Brandel cell harvester. Prior to the filtration, the filter to be used was presoaked in a 0.1% solution of polyethylenimine for one hour. The radioactivity on the filter was determined with by ACS-II scintillation cocktail by a liquid scintillation counter.

[3] = Acute Toxicity (intravenous, lethality over 7 days); conditions: mouse, in vivo, mice, observed for 7 days, read-out: 50% lethal dose (LD50)
Description: Male mice of Std-ddY strain weighing 25-30 g were used in a group of 5 animals. A test compound was suspended in physiological saline solution or 1% lactose solution and administered intravenously to the mice. […] The LD50 doses of the compounds of Examples 1, 10, 12, 18, 20, 21, 25 and 26 were all more than 100 mg/kg.

[4] = tested on: Mice of Std-ddY strain (evacuation); experiment: Assay on Evacuation in Mice (fecal pellets, oral); format: in vivo, mouse (Std-ddY, male); parameters: key: -: Inactive; +: Moderately stimulated (P<0.05); ++: Markedly stimulated (p<0.01); conditions: 1 mg/kg oral; fecal pellets at 30, 60 and 120 minutes; Dunnett's test; fumarates except numbers marked ** (25, 86: free bases)
Description: Male mice of Std-ddY strain weighing 25-30 g were used. Free access to food and water was allowed up to the beginning of the procedure.
The mice (each group: five mice) were placed in a mesh bottom cage for fasting, and they were allowed for acclimation to new environment for about one hour prior to the start of the experiment. A test compound, which was previously suspended in the 0.5% tragacanth solution, was administered orally to the mice at a dose of 1 mg/kg. The fecal pellets were counted and collected at 30, 60 and 120 minutes after the treatment of a test compound, and weighed.
The statistical judgment of efficacy was carried out between the control group and the treated group, and determined by Dunnett's test.

T1 sequence (O70528 whole entry): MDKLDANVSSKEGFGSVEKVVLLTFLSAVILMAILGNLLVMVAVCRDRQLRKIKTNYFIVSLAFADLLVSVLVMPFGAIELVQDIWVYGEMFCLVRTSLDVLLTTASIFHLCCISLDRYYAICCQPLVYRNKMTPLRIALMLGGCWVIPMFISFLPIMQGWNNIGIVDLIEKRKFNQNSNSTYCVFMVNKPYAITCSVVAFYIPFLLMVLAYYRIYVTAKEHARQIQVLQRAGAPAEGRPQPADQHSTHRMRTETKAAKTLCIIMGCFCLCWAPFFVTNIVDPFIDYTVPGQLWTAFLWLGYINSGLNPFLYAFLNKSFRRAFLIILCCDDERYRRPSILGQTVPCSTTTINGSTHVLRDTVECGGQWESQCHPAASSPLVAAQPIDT

| Structure (SMILES) | inhibitory effects on the central nervous system / dopamine D2 antagonism (dopamine D2 receptors) | gastrointestinal motility (5-HT4 receptors) | side effects on the heart [1] | IC50 [2] [nM] | LD50 at 168 h [3] [mg/kg] | Effect (evacuation) [4] |
| --- | --- | --- | --- | --- | --- | --- |
| COc1cc(N)c(Cl)cc1C(=O)N[C@H]1CCN(CCCOc2ccc(F)cc2)C[C@H]1OC (relative stereo) [Comp. A, cis-4-amino-5-chloro-N-[1-[3-(4-fluorophenoxy)-propyl]-3-methoxy-4-piperidinyl]-2-methoxybenzamide] | inhibitory effects on the central nervous system based on the antagonistic activity against dopamine D2 receptors | enhance the gastrointestinal motility by stimulating 5-HT4 receptors | side effects on the heart |  |  |  |
| COc1cc(N)c(Cl)cc1C(=O)NC1CCN(CC2CCN(C(=O)N(C)C)CC2)CC1 [Example 1, 4-amino-5-chloro-N-[1-(1-dimethylcarbamoyl-4-piperidinylmethyl)-4-piperidinyl]-2-methoxybenzamide] |  |  |  | 11.9 | > 100 | ++ |
| COc1cc(N)c(Cl)cc1C(=O)NC1CCN(CC2CCN(C(=S)N(C)C)CC2)CC1 [Example 10, 4-amino-5-chloro-N-[1-(1-dimethylthiocarbamoyl-4-piperidinylmethyl)-4-piperidinyl]-2-methoxybenzamide] |  |  |  | 8 | > 100 | ++ |
| COc1cc(N)c(Cl)cc1C(=O)NC1CCN(CC2CCN(C(=O)N3CCCC3)CC2)CC1 [Example 12, 4-amino-5-chloro-2-methoxy-N-[1-[1-(1-pyrrolidinecarbonyl)-4-piperidinylmethyl]-4-piperidinyl]benzamide] |  |  |  | 8.7 | > 100 | ++ |
| CN(C)C(=O)N1CCC(CN2CCC(NC(=O)c3cc(Cl)c(N)c4c3OCC4)CC2)CC1 [Example 18, 4-amino-5-chloro-N-[1-(1-dimethylcarbamoyl-4-piperidinylmethyl)-4-piperidinyl]-2,3-dihydrobenzo[b]furan-7-carboxamide] |  |  |  | 3.3 | > 100 | ++ |
| CN(C)C(=S)N1CCC(CN2CCC(NC(=O)c3cc(Cl)c(N)c4c3OCC4)CC2)CC1 [Example 20, 4-amino-5-chloro-N-[1-(1-dimethylthiocarbamoyl-4-piperidinylmethyl)-4-piperidinyl]-2,3-dihydrobenzo[b]furan-7-carboxamide] |  |  |  | 1.3 | > 100 | ++ |
| Nc1c(Cl)cc(C(=O)NC2CCN(CC3CCN(C(=O)N4CCCC4)CC3)CC2)c2c1CCO2 [Example 21, 4-amino-5-chloro-N-[1-[1-(1-pyrrolidinecarbonyl)-4-piperidinylmethyl)-4-piperidinyl]-2,3-dihydrobenzo[b]furan-7-carboxamide] |  |  |  | 2.4 | > 100 | ++ |
| CCOc1cc(N)c(Cl)cc1C(=O)NC1CCN(CC2CCN(C(=O)N(C)C)CC2)CC1 [Example 25, 4-amino-5-chloro-N-[1-(1-dimethylcarbamoyl-4-piperidinylmethyl)-4-piperidinyl]-2-ethoxybenzamide] |  |  |  | 4.2 | > 100 | ++ |
| COc1cc(N)c(Br)cc1C(=O)NC1CCN(CC2CCN(C(=O)N(C)C)CC2)CC1 [Example 26, 4-amino-5-bromo-N-[1-(1-dimethylcarbamoyl-4-piperidinylmethyl)-4-piperidinyl]-2-methoxybenzamide] |  |  |  | 11.5 | > 100 | + |
| CC(C)Oc1cc(N)c(Cl)cc1C(=O)NC1CCN(CC2CCN(C(=O)N(C)C)CC2)CC1 [Example 30, 4-amino-5-chloro-N-[1-(1-dimethylcarbamoyl-4-piperidinylmethyl)-4-piperidinyl]-2-isopropoxybenzamide] |  |  |  | 4.3 |  | ++ |
| CCOc1cc(N)c(Cl)cc1C(=O)NC1CCN(CC2CCN(C(=O)N3CCCC3)CC2)CC1 [Example 32] |  |  |  | 3.2 |  | + |
| COc1cc(N)c(Br)cc1C(=O)NC1CCN(CC2CCN(C(=O)N3CCCC3)CC2)CC1 [Example 34, 4-amino-5-bromo-2-methoxy-N-[1-[1-(1-pyrrolidinecarbonyl)-4-piperidinylmethyl]-4-piperidinyl]benzamide] |  |  |  | 8.9 |  | ++ |
| COc1cc(N)c(Cl)cc1C(=O)NC1CCN(CC2CCN(C(=O)Nc3ccccc3)CC2)CC1 [Example 37, 4-amino-5-chloro-2-methoxy-N-[1-(1-phenylcarbamoyl-4-piperidinylmethyl)-4-piperidinyl]benzamide] |  |  |  | 1.1 |  | ++ |
| Nc1c(Cl)cc(C(=O)NC2CCN(CC3CCN(C(=O)Nc4ccccc4)CC3)CC2)c2c1CCO2 [Example 52, 4-amino-5-chloro-N-[1-(1-phenylcarbamoyl-4-piperidinylmethyl)-4-piperidinyl]-2,3-dihydrobenzo[b]furan-7-carboxamide] |  |  |  | 0.36 |  | ++ |
| CCOc1cc(N)c(Cl)cc1C(=O)NC1CCN(CC2CCN(C(=O)CCOC)CC2)CC1 [Example 81, 4-amino-5-chloro-2-ethoxy-N-[1-[1-(3-methoxypropionyl)-4-piperidinylmethyl]-4-piperidinyl]benzamide] |  |  |  | 7.7 |  | ++ |
| CCC(=O)CN1CCC(CN2CCC(NC(=O)c3cc(Cl)c(N)cc3OC)CC2)CC1 [Example 86] |  |  |  | 8.3 |  | ++ |
| CCN(CC)CCNC(=O)c1cc(Cl)c(N)cc1OC [metoclopramide] |  | enhance the gastrointestinal motility by stimulating 5-HT4 receptors |  |  |  |  |
